Earlier results on one compound are cited in patent publication US8980889B2, “Pyrazole derivative” (Mochida Pharmaceutical Co., Ltd., priority 2013, dated 2015).

Common to all, as to settings: U.S. Patent Application No. 2003/0032579
Data set [1] deals with rats.
The subject of data set [2] is rat.
The test system of data set [3] is rat brain.

Take `COc1ccc(Cc2nccc3cc(OC)c(OC)cc23)cc1OC` [papaverine]: the apomorphine-induced stereotypy entry in data set [1] is recorded as “decreases”. Further, in data set [2], the haloperidol-induced catalepsy entry is reported as “increases”. Further, the “dopamine level in the rat brain” value in data set [3] is recorded as “decreases”.
